Consider 16 compounds from ChEMBL document CHEMBL5352385, “Marine natural products and their synthetic analogs as promising antibiofilm agents for antibiotics discovery and development” (Eur J Med Chem, 2022).

In assay [1] the test system is Staphylococcus aureus. The assay is described as follows: Antibiofilm activity against methicillin-resistant Staphylococcus aureus 33591 assessed as reduction in biofilm formation at 50 ug/ml measured after 24 hrs by crystal violet staining based analysis relative to control. The class given is functional. Also on record: scale not given: the % may be the effect or the level left. The conditions noted are these: dose 50 µg/ml.

The subject of assay [2] is Staphylococcus aureus. The assay is described as follows: Antibiofilm activity against Staphylococcus aureus by crystal violet staining based analysis. In kind it is functional.
Assay [3] deals with Staphylococcus aureus. Kind of assay: Antibiofilm activity against Staphylococcus aureus incubated for 3 hrs by XTT method. In kind it is functional.
A short description of assay [4]: Inhibition of quorum-sensing system in Staphylococcus epidermidis assessed as inhibition of AI-2 at 60 ug/ml by bioluminescence assay relative to control. The conditions noted are these: dose 60.0 µg/ml.
Assay [5] concerns Escherichia coli. Kind of assay: Antibiofilm activity against Escherichia coli at 31.3 ug/ml relative to control. In kind it is functional. The conditions noted are these: dose 31.3 µg/ml.
Assay [6] relates to Staphylococcus aureus. Kind of assay: Antibiofilm activity against Staphylococcus aureus ATCC 29213 at 0.5 to 4 ug/ml relative to control. In kind it is functional. The conditions noted are these: dose 0.5-4 µg/ml; at 0.5 to 4 µg/mL.
Assay [7] deals with Candida albicans. The assay is described as follows: Antibiofilm activity against Candida albicans assessed as reduction in biofilm formation at 50 ug/ml measured after 48 hrs by crystal violet staining based analysis relative to control. In kind it is functional. On the set-up: scale not given: the % may be the effect or the level left. The conditions noted are these: dose 50 µg/ml.

Assay [8] has as its system Pseudomonas aeruginosa. Kind of assay: Antibiofilm activity against Pseudomonas aeruginosa PAO1 at 500 ug/ml incubated for 24 hrs by crystal violet staining based analysis relative to control. In kind it is functional. The conditions noted are these: dose 500 µg/ml.
Assay [9] deals with Bacillus subtilis. Kind of assay: Antibiofilm activity against Bacillus subtilis MTCC 619 at 2 ug/ml incubated for 18 hrs by crystal violet staining based analysis relative to control. In kind it is functional. The conditions noted are these: dose 2 µg/ml.
Assay [10] concerns Staphylococcus aureus. Kind of assay: Antibiofilm activity against Staphylococcus aureus MTCC 96 at 2 ug/ml incubated for 18 hrs by crystal violet staining based analysis relative to control. In kind it is functional. The conditions noted are these: dose 2 µg/ml.
The next assay has as its system Vibrio cholerae. The assay is described as follows: Antibiofilm activity against Vibrio cholerae MTCC 3906 at 2 ug/ml incubated for 18 hrs by crystal violet staining based analysis relative to control. The class given is functional. The conditions noted are these: dose 2 µg/ml.
In assay [11] the test system is Staphylococcus epidermidis. Kind of assay: Antibiofilm activity against Staphylococcus epidermidis. The class given is functional.
Assay [12] concerns Pseudomonas aeruginosa. The assay is described as follows: Antibiofilm activity against Pseudomonas aeruginosa PA01 at 128 ug/ml relative to control. The class given is functional. The conditions noted are these: dose 128 µg/ml.
Assay [13] relates to Staphylococcus aureus. Kind of assay: Antibiofilm activity against Staphylococcus aureus ATCC 6538 at 6.25 ug/ml relative to control. The conditions noted are these: dose 6.25 µg/ml. In kind it is functional.
Another assay has as its system Vibrio anguillarum. The assay is described as follows: Antibiofilm activity against Vibrio anguillarum at 300 ug/ml relative to control. The conditions noted are these: dose 300 µg/ml. The class given is functional.
For assay [14], the system named is Pseudomonas aeruginosa. The assay is described as follows: Antibiofilm activity against Pseudomonas aeruginosa at 300 ug/ml relative to control. In kind it is functional. The conditions noted are these: dose 300 µg/ml.
For assay [15], the system named is Bacillus subtilis. Kind of assay: Antibiofilm activity against Bacillus subtilis at 300 ug/ml relative to control. The class given is functional. The conditions noted are these: dose 300 µg/ml.
Another assay has as its system Bacillus sp. The assay is described as follows: Antibiofilm activity against Bacillus sp. 176 at 300 ug/ml relative to control. In kind it is functional. The conditions noted are these: dose 300 µg/ml.
The test system of assay [16] is Staphylococcus aureus. The assay is described as follows: Antibiofilm activity against Staphylococcus aureus ATCC 6538 at 12.5 ug/ml relative to control. The class given is functional. The conditions noted are these: dose 12.5 µg/ml.
A further assay relates to Streptococcus mutans. Kind of assay: Antibiofilm activity against Streptococcus mutans at 5 ug/ml relative to control. The class given is functional. The conditions noted are these: dose 5 µg/ml.
Assay [17] has as its system Candida albicans. The assay is described as follows: Antibiofilm activity against Candida albicans assessed as reduction in biofilm formation at 100 ug/ml measured after 48 hrs by crystal violet staining based analysis relative to control. In kind it is functional. Also on record: scale not given: the % may be the effect or the level left. The conditions noted are these: dose 100 µg/ml.

The next assay concerns Serratia marcescens. Kind of assay: Antibiofilm activity against Serratia marcescens FJ584421 assessed as inhibition of biofilm formation at 300 ug/ml relative to control. The class given is functional. Also on record: scale not given: the % may be the effect or the level left. The conditions noted are these: dose 300 µg/ml.
Assay [18] relates to Pseudomonas aeruginosa. The assay is described as follows: Antibiofilm activity against Pseudomonas aeruginosa PA01 assessed as inhibition of biofilm formation at 800 ug/ml relative to control. In kind it is functional. Also on record: scale not given: the % may be the effect or the level left. The conditions noted are these: dose 800 µg/ml.
Assay [19] deals with Escherichia coli. Kind of assay: Antibiofilm activity against Escherichia coli assessed as inhibition of biofilm formation. In kind it is functional.
In assay [20] the test system is Pseudomonas aeruginosa. The assay is described as follows: Antibiofilm activity against Pseudomonas aeruginosa assessed as inhibition of biofilm formation at 100 to 200 ug/ml relative to control. On the set-up: scale not given: the % may be the effect or the level left. The conditions noted are these: dose 100-200 µg/ml; at 100 to 200 µg/mL. In kind it is functional.

*1 amine or outer side, *2 acyl side, *3 side chain or, on linkers, in order; H or OH if unused. Where a SMILES comes first, the peptide text is derived from it. [ ]: non-standard residue; d: D form. The star is where a group is joined. X1 = CCCCCCCCCCCCCC(N[*:1])C(=O)[*:2]; Palmitoyl = CCCCCCCCCCCCCCCC(=O)*

For `COc1cc(-c2ccccn2)nc(CO)c1SC`, the Activity with Staphylococcus aureus [1] was >90%.

As for `CCCCOC(=O)[C@]1(Cc2ccccc2)OC(=O)C(O)=C1c1ccccc1`, the figures for the MBIC in the assay on Staphylococcus aureus [2] and in the assay with Staphylococcus aureus [3] were 6.1 µg/mL and 97.7 µg/mL, respectively.

As for `CCCCCCCCCCCCCCC=O`, in assay [4], the inhibition was > 50%.

With `NC1=N[C@]23CCCN2C(=O)c2cc(Br)c(Br)n2[C@@H]3N1` [DIBROMOPHAKELLIN], the Activity with Escherichia coli [5] is reported as 50%.

For the compound `COC(=O)CCN(CCCCCCCCCCCOCCc1ccc[n+](Cc2ccccc2)c1)C(=O)OC(C)(C)C.[Cl-]`, in the assay on Staphylococcus aureus [6], the Activity is on record as 25%.

As to `CCCCCCC(C)/C(O)=C1\C(=O)[C@@H](C(C)O)N(C)C1=O` (stereo not given in full), in the assay with Candida albicans [7], the Activity is given as 80%.

In turn, `O=C1N[C@@H](Cc2ccc(O)cc2)C(=O)N2CCC[C@@H]12` yielded an Activity in the assay on Pseudomonas aeruginosa [8] of 48%.

Take `CCCCCCCCCCCCCCCC(=O)NC(CO)C(=O)NC(CC(=O)O)C(=O)NC(C(=O)NC(CO)C(=O)NC(CO)C(=O)O)C(C)C` (stereo not given) (Palmitoyl-SDVSS-OH; configuration not given here): the Activity in the assay with Bacillus subtilis [9], in the assay on Staphylococcus aureus [10] and in the assay on Vibrio cholerae was 99% throughout.

In the case of `O=C1Nc2ccc(Br)cc2C1(c1c[nH]c2ccccc12)c1c[nH]c2ccccc12`, the MBIC in assay [11] is 5 µM. The Activity in the assay with Pseudomonas aeruginosa [12] is recorded as 49.32%.

Compound `COC(=O)[C@@]12Oc3ccc(-c4ccc5c(c4O)C(=O)C4=C(O)C[C@H](C)[C@@H](O)[C@]4(C(=O)OC)O5)c(O)c3C(=O)C1=C(O)C[C@H](C)[C@H]2O` came in with an Activity with Staphylococcus aureus [13] of 97%.

`CCCCCCCCCCCCCC1NC(=O)C(C(C)CC)NC(=O)C(CC(C)C)NC(=O)C(CC(=O)OC)NC(=O)C(CC(C)C)NC(=O)C(CC(C)C)NC(=O)C(CC(C)C)NC(=O)C(CCC(=O)OC)NC1=O` (stereo not given) (cyclo([X1]E(OMe)LLLD(OMe)LI); configuration not given here): the Activity in the assay with Vibrio anguillarum, in the assay with Pseudomonas aeruginosa [14], in the assay with Bacillus subtilis [15] and in the assay on Bacillus sp. was >50% in each case.

For the compound `Cc1cc(O)c2c(c1)C(=O)c1cc(O)cc(O)c1C2=O` [EMODIN], the Activity with Staphylococcus aureus [16] is >50%; in the assay with Streptococcus mutans, 90%.

Regarding `C/C=C1\C(=O)/C(=C(/O)C(C)CCCCCC)C(=O)N1C` (stereo not given) [PENICILLENOL B2], the Activity with Candida albicans [17] worked out at 80%.

As to `OCCc1ccc(O)cc1` [TYROSOL], in the assay with Serratia marcescens, the Activity is reported as 85.7%.

Regarding `NCCc1ccc(O)cc1` [TYRAMINE], the Activity in the assay on Pseudomonas aeruginosa [18] is 28%.

For the compound `CCCCCCCCC1C=CC(=O)O1` (stereo not given), in the assay with Escherichia coli [19], the MBIC amounted to 50 µg/mL. For the same compound, the Activity with Pseudomonas aeruginosa [20] was 100%.
